This data set relates to CCRIS mutagenicity, Ames/micronucleus/aberration tests. Briefly: CCRIS mutagenicity studies.
Where [1] appears, read: Test System: AMES SALMONELLA TYPHIMURIUM, Strain/Indicator: TA100, Metabolic Activation: NONE, Method: PREINCUBATION
Setting [2] is: Test System: AMES SALMONELLA TYPHIMURIUM, Strain/Indicator: TA98, Metabolic Activation: NONE, Method: STANDARD PLATE.
The mark [3] stands for this setting: Test System: AMES SALMONELLA TYPHIMURIUM, Strain/Indicator: TA98, Metabolic Activation: RAT, LIVER, S-9, AROCLOR 1254, Method: STANDARD PLATE.
The mark [4] stands for this setting: Test System: AMES SALMONELLA TYPHIMURIUM, Strain/Indicator: TA100, Metabolic Activation: NONE, Method: STANDARD PLATE.
[5] abbreviates: Test System: AMES SALMONELLA TYPHIMURIUM, Strain/Indicator: TA100, Metabolic Activation: RAT, LIVER, S-9, AROCLOR 1254, Method: STANDARD PLATE.
The mark [6] stands for this setting: Test System: AMES SALMONELLA TYPHIMURIUM, Strain/Indicator: TA97, Metabolic Activation: NONE, Method: STANDARD PLATE.
The mark [7] stands for this setting: Test System: AMES SALMONELLA TYPHIMURIUM, Strain/Indicator: TA97, Metabolic Activation: RAT, LIVER, S-9, AROCLOR 1254, Method: STANDARD PLATE.
Setting [8] is: Test System: AMES SALMONELLA TYPHIMURIUM, Strain/Indicator: TA102, Metabolic Activation: NONE, Method: STANDARD PLATE.
Setting [9] is: Test System: AMES SALMONELLA TYPHIMURIUM, Strain/Indicator: TA102, Metabolic Activation: RAT, LIVER, S-9, AROCLOR 1254, Method: STANDARD PLATE.

Calls of active or inactive are those of the source. No rule for the calls is given here.

As for `C/C=C/C=O`, the mutagenic call (End Point: IN VITRO CHROMOSOMAL ABERRATIONS, Test System: CHINESE HAMSTER OVARY CELLS, Metabolic Activation: NONE) is “active; positive”; the mutagenic call (End Point: IN VITRO CHROMOSOMAL ABERRATIONS, Test System: CHINESE HAMSTER OVARY CELLS, Metabolic Activation: RAT, LIVER, S-9, AROCLOR 1254) is “active; positive”; the mutagenic call (End Point: IN VITRO CHROMOSOMAL ABERRATIONS, Test System: CHL CELLS, Metabolic Activation: RAT, LIVER, S-9, SODIUM PHENOBARBITAL AND 5,6-BENZOFLAVONE) was “active; positive (structural changes)”; the mutagenic call (End Point: In vivo chromosomal aberrations, Test System: Bone marrow, Species: Mouse, Strain/Sex: Swiss/ 3 males and 2 females per group, Route: Intraperitoneal) is “active; positive (statistically significant at all doses and durations) (structural aber”; the mutagenic call (End Point: In vivo chromosomal aberrations, Test System: Spermatocytes, Species: Mouse, Strain/Sex: Swiss/males, Route: Intraperitoneal) was “active; positive (dose-related) (autosomal univalents, x-y univalents, fragments or brea”; the mutagenic call (Test System: AMES SALMONELLA TYPHIMURIUM, Strain/Indicator: TA98, Metabolic Activation: NONE, Method: FLUCTUATION (MICROTITER)) was “active; positive”. Moreover, the mutagenic call runs as follows: (Test System: AMES SALMONELLA TYPHIMURIUM, Strain/Indicator: TA98, Metabolic Activation: NONE, Method: PREINCUBATION) “active; positive”; (Test System: AMES SALMONELLA TYPHIMURIUM, Strain/Indicator: TA98, Metabolic Activation: RAT LIVER S-9, PHENOBARBITAL AND BETA-NAPHTHOFLAVONE, Method: PREINCUBATION) “active; positive”; (Test System: AMES SALMONELLA TYPHIMURIUM, Strain/Indicator: TA100, Metabolic Activation: NONE, Method: MODIFIED LIQUID SUSPENSION) “active; positive”; under setting [1], “active; positive”; (Test System: AMES SALMONELLA TYPHIMURIUM, Strain/Indicator: TA100, Metabolic Activation: NONE, Method: PREINCUBATION (THREEFOLD CELL DENSITY)) “active; positive”; (Test System: AMES SALMONELLA TYPHIMURIUM, Strain/Indicator: TA100, Metabolic Activation: RAT LIVER S-9, PHENOBARBITAL AND BETA-NAPHTHOFLAVONE, Method: PREINCUBATION) “active; positive”. Also, the mutagenic call reads like this: (Test System: AMES SALMONELLA TYPHIMURIUM, Strain/Indicator: TA100, Metabolic Activation: RAT, LIVER, S-9, AROCLOR 1254, Method: MODIFIED LIQUID SUSPENSION) “active; positive”; (Test System: AMES SALMONELLA TYPHIMURIUM, Strain/Indicator: TA100, Metabolic Activation: RAT, LIVER, S-9, AROCLOR 1254, Method: PREINCUBATION (THREEFOLD CELL DENSITY)) “active; positive”; (Test System: AMES SALMONELLA TYPHIMURIUM, Strain/Indicator: TA104, Metabolic Activation: NONE, Method: PREINCUBATION) “active; positive”; (Test System: AMES SALMONELLA TYPHIMURIUM, Strain/Indicator: TA1535, Metabolic Activation: NONE, Method: PREINCUBATION) “inactive; negative”; (Test System: AMES SALMONELLA TYPHIMURIUM, Strain/Indicator: TA1535, Metabolic Activation: RAT LIVER S-9, PHENOBARBITAL AND BETA-NAPHTHOFLAVONE, Method: PREINCUBATION) “inactive; negative”; (Test System: AMES SALMONELLA TYPHIMURIUM, Strain/Indicator: TA1537, Metabolic Activation: NONE, Method: FLUCTUATION (MICROTITER)) “inactive; negative”. Also, the mutagenic call is “inactive; negative” (Test System: AMES SALMONELLA TYPHIMURIUM, Strain/Indicator: TA1537, Metabolic Activation: RAT LIVER S-9, PHENOBARBITAL AND BETA-NAPHTHOFLAVONE, Method: PREINCUBATION); “inactive; negative” (Test System: AMES SALMONELLA TYPHIMURIUM, Strain/Indicator: TA7001, Metabolic Activation: NONE, Method: FLUCTUATION (MICROTITER)); “active; positive” (Test System: AMES SALMONELLA TYPHIMURIUM, Strain/Indicator: TA7002, Metabolic Activation: NONE, Method: FLUCTUATION (MICROTITER)); “inactive; negative” (Test System: AMES SALMONELLA TYPHIMURIUM, Strain/Indicator: TA7003, Metabolic Activation: NONE, Method: FLUCTUATION (MICROTITER)); “active; positive” (Test System: AMES SALMONELLA TYPHIMURIUM, Strain/Indicator: TA7004, Metabolic Activation: NONE, Method: FLUCTUATION (MICROTITER)); “active; positive” (Test System: AMES SALMONELLA TYPHIMURIUM, Strain/Indicator: TA7005, Metabolic Activation: NONE, Method: FLUCTUATION (MICROTITER)). In addition, the mutagenic call is “active; positive” (Test System: AMES SALMONELLA TYPHIMURIUM, Strain/Indicator: TA7006, Metabolic Activation: NONE, Method: FLUCTUATION (MICROTITER)); “inactive; negative” (Test System: CHINESE HAMSTER OVARY, Strain/Indicator: AS52/6-THIOGUANINE, Metabolic Activation: NONE, Method: STANDARD PLATE); “inactive; negative” (Test System: E.COLI, Strain/Indicator: WP2UVRA, Metabolic Activation: NONE, Method: PREINCUBATION); “inactive; negative” (Test System: E.COLI, Strain/Indicator: WP2UVRA, Metabolic Activation: RAT LIVER S-9, PHENOBARBITAL AND BETA-NAPHTHOFLAVONE, Method: PREINCUBATION).

As to `CC1OC1c1ccc(C#N)cc1` (configuration not stated), the mutagenic call under setting [1] was “active; positive”.

Regarding `Cc1ccc2ccc3ccccc3c2c1C`, the mutagenic call is “inactive; negative” under setting [2], “inactive; negative” under setting [3], “inactive; negative” under setting [4] and “inactive; negative” under setting [5].

Regarding `O=C(/C=C/c1ccccc1)c1ccc(Br)cc1`, the mutagenic call reads like this: under setting [2], “inactive; negative”; under setting [3], “inactive; negative”; under setting [4], “inactive; negative”; under setting [5], “inactive; negative”.

`C=CCc1ccc(O)c(O)c1`: the mutagenic call under setting [6] is “inactive; negative”; the mutagenic call under setting [7] was “inactive; negative”; the mutagenic call under setting [2] was “inactive; negative”; the mutagenic call under setting [3] was “inactive; negative”; the mutagenic call under setting [4] was “inactive; negative”; the mutagenic call under setting [5] was “inactive; negative”. Besides, the mutagenic call was “active; positive” under setting [8]; “inactive; negative” under setting [9]; “inactive; negative” (Test System: AMES SALMONELLA TYPHIMURIUM, Strain/Indicator: TA1535, Metabolic Activation: NONE, Method: STANDARD PLATE); “inactive; negative” (Test System: AMES SALMONELLA TYPHIMURIUM, Strain/Indicator: TA1535, Metabolic Activation: RAT, LIVER, S-9, AROCLOR 1254, Method: STANDARD PLATE); “inactive; negative” (Test System: AMES SALMONELLA TYPHIMURIUM, Strain/Indicator: TA1538, Metabolic Activation: NONE, Method: STANDARD PLATE); “inactive; negative” (Test System: AMES SALMONELLA TYPHIMURIUM, Strain/Indicator: TA1538, Metabolic Activation: RAT, LIVER, S-9, AROCLOR 1254, Method: STANDARD PLATE).

As for `CCOC(=O)C(=NNc1ccc(-c2ccc(NN=C(C(=O)OCC)C(=O)OCC)c(Cl)c2)cc1Cl)C(=O)OCC`, the mutagenic call is “inactive; negative” (Test System: AMES SALMONELLA TYPHIMURIUM, Strain/Indicator: TA98, Metabolic Activation: HAMSTER, LIVER, S-9, Method: PREINCUBATION (PRIVAL METHOD)) and “inactive; negative” (Test System: AMES SALMONELLA TYPHIMURIUM, Strain/Indicator: TA98, Metabolic Activation: NONE, Method: PREINCUBATION (PRIVAL METHOD)).

For the compound `Clc1cccnc1Cl`, the mutagenic call under setting [6] is “inactive; negative”; the mutagenic call under setting [7] is “active; positive”; the mutagenic call under setting [2] was “inactive; negative”; the mutagenic call under setting [3] is “inactive; negative”; the mutagenic call under setting [4] is “inactive; negative”; the mutagenic call under setting [8] is “inactive; negative”. Under setting [9], the mutagenic call was “inactive; negative”.

On to `COc1ccc([C@H]2O[C@H]2C(=O)c2ccccc2)cc1`, for which the mutagenic call by setting is: under setting [2], “inactive; negative”; under setting [3], “inactive; negative”; under setting [4], “active; positive”; under setting [5], “active; positive”.

Source of the values: PubChem BioAssay AID1259407 (Chemical Carcinogenesis Research Information System (CCRIS), 2018).
